Measurements: patent US20090005442A1, “CARBAMATE COMPOUNDS FOR USE IN PREVENTING OR TREATING NEURODEGENERATIVE DISORDERS” (priority 2001, published 2009)

Tested on: PC12 cells
Experiment: PC12 cell serum withdrawal model (MTS cell survival assay)
Format: cell-based
Conditions: control cells = 100%; for 7 Day Survival Rate (%): 10 μM applied at serum withdrawal and every 48 hr, MTS assay at 7 days; for 2 Day Survival Rate (%): 10 μM applied once at serum withdrawal, MTS assay at 2 days
Excerpt: Serum withdrawal is a cytotoxic environmental challenge that results in cell death in cultured cell lines as well as in primary cells of various tissue origins, including nerve cells. In particular, pheochromocytoma (PC) 12 cells have been widely employed as an in vitro neuronal cell model for a wide variety of neurodegenerative and cell death related disorders (Muriel, et al, Mitochondrial free calcium levels (Rhod-2 fluorescence) and ultrastructural alterations in neuronally differentiated PC12 cells during ceramide-dependent cell death, J. Comp. Neurol., 2000, 426(2), 297-315; Dermitzaki, et al, Opioids transiently prevent activation of apoptotic mechanisms following short periods of serum withdrawal, J. Neurochem., 2000, 74(3), 960-969; Carlile, et al, Reduced apoptosis after nerve growth factor and serum withdrawal: conversion of tetrameric glyceraldehyde-3-phosphate dehydrogenase to a dimer, Mol. Pharmacol., 2000, 57(1), 2-12).
PC12 cells were cultured in sterile media (RPMI 1640) supplemented with 10% heat-inactivated horse serum and 5% fetal bovine serum (FBS). The culture medium also contained 1× Penicillin-Streptomycin-Neomycin antibiotic (50 μg, 50 μg, 100 μg, respectively). Medium was exchanged every other day and the cells were passed in log phase near confluence.
The control cells were cultured in regular media without any treatment. An enantiomer of Formula (Ib) or […] (10 μM) was mixed well in the medium and then applied to the cells. For the 2 day assay, an enantiomer of Formula (Ib) or […] (10 μM) was only applied to the cells once at the time of serum withdrawal. For the 7 day assay, an enantiomer of Formula (Ib) or Formula (IIb) (10 μM) was applied to the cells at the time of serum withdrawal and every 48 hr thereafter when cells were changed with fresh new serum-free medium. In the serum withdrawal group, the cells were cultured in serum-free medium with no additional enantiomer of Formula (Ib) or Formula (IIb). Cell survival was determined by the 3-(4,5-dimethylthiazol-2-yl)-5-(3-carboxy-methoxyphenyl)-2-(4-sulfophenyl)-2H-tetrazolium inner salt (MTS) assay at 2 or 7 days after serum withdrawal.
At the end of the experiment, cells were washed with fresh medium and incubated with MTS solution in a humidified 37° C. with 5% CO2 incubator for 1.5 hr. After the incubation period, the cells were immediately analyzed using a Softmax program (Molecular Devices). […] The assay is based on the cellular conversion of the tetrazolium salt, MTS, into a formazan that is soluble in tissue culture medium and measured directly at 490 nm in 96-well assay plates. The absorbance is directly proportional to the number of living cells in culture. The arbitrary absorbance reading in control cells is expressed as 100% survival rate.

Compound	7 Day Survival Rate (%)	2 Day Survival Rate (%)
NC(=O)OC[C@H](OC(N)=O)c1ccccc1Cl [Formula (IIb)]	85.2 ± 0.6^2%	66.4 ± 5.4^1%
NC(=O)OC[C@@H](O)c1ccccc1Cl [Formula (Ib)]	79.9 ± 4.0^2%	69.4 ± 1.7^1%
